Read-outs that look alike come from different tables or passages of the source.
How the values were obtained:
[1] = Plasma pharmacokinetics, Phase I open‐label two‐group fixed‐sequence drug‐drug interaction study; settings: for AUC0‐24 h LSM ratio / C max LSM ratio: point estimate (90% CI); for AUC: AUC0‐24 h; for Tmax: T max
From the text: This was an open‐label, two‐group, fixed‐sequence study conducted at a single study center in Rennes, France (Biotrial). A two‐group, fixed‐sequence study design was chosen as this was deemed to be the most efficient way to evaluate the effect of simeprevir with/without odalasvir on AL‐335; and vice versa (Group 1) and the effect of odalasvir with/without simeprevir on AL‐335; and vice versa (Group 2). Thus, this study design had the potential to gather both 2‐way and 3‐way DDIs. For both groups, the study consisted of a screening period, a study period, and two follow‐up visits. The study was authorized by the French National Agency for the Safety of Medicine and Health Products (ANSM) and was approved by an Independent Ethics Committee (Comité de Protection des Personnes [CPP] Ouest VI, Brest, France; Reference CPP Ouest 6–CPP 888/MS1), and was conducted in accordance with the principles of the Declaration of Helsinki and International Conference on Harmonization. All subjects provided written informed consent to participate. Drug and molecular target nomenclature in this manuscript conforms to the British Journal of Pharmacology's Concise Guide to Pharmacology 2017/18.19
Subjects in Group 1 received simeprevir 150 mg QD on days 4‐23, odalasvir 150 mg (loading dose) on day 14, odalasvir 50 mg QD on days 15‐23, and AL‐335 800 mg QD on days 1‐3, 11‐13, and 21‐23. Subjects in Group 2 received odalasvir 150 mg (loading dose) on day 4, odalasvir 50 mg QD on days 5‐23, simeprevir 150 mg QD on days 14‐23, and AL‐335 800 mg QD on days 1‐3, 11‐13, and 21‐23. […] A minimum of 10 days was considered sufficient for both odalasvir and simeprevir to reach steady‐state.
Subjects were assigned sequentially to Group 1 then to Group 2 after confirming eligibility.
As this was an […] pharmacokinetic study, blood samples for pharmacokinetic analysis were collected predose and at 0.25, 0.5, 1, 2, 3, 4, 6, 8, 10, 12, and 24 hours postdose on days 3, 13, and 23 for determination of AL‐335, ALS‐022399, and ALS‐022227 plasma concentrations (Groups 1 and 2). For simeprevir, blood samples for determination of simeprevir plasma concentrations were taken at the same time points but on days 10, 13, 20, and 23 (Group 1) or days 20 and 23 (Group 2). Blood samples for the determination of odalasvir plasma concentrations were collected predose and at 1, 3, 4, 5, 6, 7, 8, 9, 10, 12, 16, and 24 hours postdose on days 20 and 23 (Group 1) or days 10, 13, 20, and 23 (Group 2), with two further samples also collected on the day 7 and day 28 follow‐up assessments (both groups).
Plasma concentrations of AL‐335, ALS‐022399, ALS‐022227, odalasvir, and simeprevir were determined using validated liquid chromatography‐tandem mass spectrometry methods. Dichlorvos solution was added to blood samples from AL‐335‐treated subjects to stabilize AL‐335 and its metabolites (25 μL of 5 mmol/L dichlorvos into 1 mL blood). The lower limit of quantification was 1 ng/mL, 2 ng/mL, and 5 ng/mL for AL‐335, ALS‐022399, and ALS‐022227, respectively, 1 ng/mL for odalasvir, and 2 ng/mL for simeprevir.
Pharmacokinetic analyses were performed on all subjects with available profiles who received at least one dose of study drug without any protocol deviation affecting pharmacokinetic evaluation. […] Secondary parameters were last observed plasma concentration, apparent elimination half‐life, time of the maximum observed plasma concentration (T max), and time to last measurable plasma concentration (T last).

[2] = in vivo; cited from earlier work
P‐glycoprotein = settings: cited from earlier work
OATP1B1/1B3 = settings: cited from earlier work
[3] = test system: CYPs 1A2, 2B6, 2C8, 2C9, 2C19, 2D6, and 3A4; parameters: method as in data on file; settings: ref data on file; cited from earlier work
[4] = test system: host polymerases, including the mitochondrial RNA polymerase; settings: cited from earlier work
[5] = test system: breast cancer resistance protein (BCRP); settings: ref data on file; cited from earlier work
[6] = Group 1 Day 3, AL‐335 alone, mean (SD)
[7] = Group 1 Day 13, AL‐335 + SMV, mean (SD)
[8] = Group 1 Day 23, AL‐335 + ODV + SMV versus AL‐335 alone
[9] = Group 1 Day 23, AL‐335 + ODV + SMV, mean (SD)
[10] = Group 2 Day 3, AL‐335 alone, mean (SD)
[11] = Group 2 Day 13, AL‐335 + ODV, mean (SD)
[12] = Group 2 Day 23, AL‐335 + ODV + SMV versus AL‐335 alone
[13] = Group 2 Day 23, AL‐335 + ODV + SMV, mean (SD)

## COC(=O)N[C@H](C(=O)N1[C@H](c2nc3cc(-c4cc5ccc4CCc4ccc(c(-c6ccc7[nH]c([C@@H]8C[C@@H]9CCCC[C@@H]9N8C(=O)[C@@H](NC(=O)OC)C(C)C)nc7c6)c4)CC5)ccc3[nH]2)C[C@@H]2CCCC[C@@H]21)C(C)C [odalasvir]
[1]; human, in vivo
  AUC0‐24 h: 8694 (3956) ng.h/mL
  C max: 582 (221) ng/mL
  T max: 5.00 (5.0‐7.0) h
  increase in exposure (C max, C min, AUC0‐24 h): 1.5‐ to 2
[1]; in vivo
  C min: 235 (132) ng/mL
  Clast: 287 (150) ng/mL
  T last: 23.9 (23.9‐24.0) h
[2]
  clearance route and metabolism: primarily cleared by biliary secretion and undergoes minimal metabolism
  drug‐drug interactions (DDIs): No clinically significant drug‐drug interactions
  terminal elimination half‐life: approximately 250 hours

## C[C@]1(O)[C@H](n2ccc(=O)[nH]c2=O)O[C@](F)(CO)[C@H]1O [ALS‐022227]
[1]; human, in vivo
  difference in T max between any of the treatment combinations: No clinically relevant difference
  t 1/2: 6.0 (0.5) h
P‐glycoprotein
  P‐glycoprotein substrate / inhibitor status: neither substrates nor inhibitors
OATP1B1/1B3
  OATP1B1/1B3 substrate / inhibitor status: neither substrates nor inhibitors

## CC(C)OC(=O)[C@H](C)N[P@](=O)(OC[C@@]1(F)O[C@@H](n2ccc(=O)[nH]c2=O)[C@](C)(O)[C@@H]1O)Oc1ccccc1 [AL‐335]
[1]; AL‐335 alone or with odalasvir and/or simeprevir
  difference in T max between any of the treatment combinations: No clinically relevant difference
[1]; [6]
  C last: 6 (8) ng/mL
  C max: 162 (77) ng/mL
[1]; Group 1 Day 3, AL‐335 alone, median (range)
  T last: 6.00 (4.00‐6.00) h
[1]; [7]
  C last: 3 (2) ng/mL
  C max: 376 (186) ng/mL
[1]; Group 1 Day 13, AL‐335 + SMV, median (range)
  T last: 8.00 (6.00‐10.00) h
[1]; [8]
  AUC0‐24 h LSM ratio: 6.92 (5.46‐8.77)
  C max LSM ratio: 4.60 (3.68‐5.75)
[1]; [9]
  C last: 3 (1) ng/mL
  C max: 747 (340) ng/mL
[1]; Group 1 Day 23, AL‐335 + ODV + SMV, median (range)
  T last: 8.00 (6.00‐10.08) h
[1]; [10]
  C last: 3 (2) ng/mL
  C max: 151 (72) ng/mL
[1]; Group 2 Day 3, AL‐335 alone, median (range)
  T last: 6.00 (4.00‐8.00) h
[1]; [11]
  C last: 2 (1) ng/mL
  C max: 516 (259) ng/mL
[1]; Group 2 Day 13, AL‐335 + ODV, median (range)
  T last: 8.00 (4.00‐12.00) h
[1]; [12]
  AUC0‐24 h LSM ratio: 8.23 (6.26‐10.82)
  C max LSM ratio: 6.30 (4.93‐8.05)
[1]; [13]
  C last: 2 (1) ng/mL
  C max: 950 (472) ng/mL
[1]; Group 2 Day 23, AL‐335 + ODV + SMV, median (range)
  T last: 10.00 (8.00‐12.03) h
[1]; human, in vivo, 800 mg, Group 1 Day 3, AL‐335 alone, mean (SD)
  AUC: 295 ng·h/mL
[1]; human, in vivo, 800 mg, Group 2 Day 3, AL‐335 alone, mean (SD)
  AUC: 324 ng·h/mL
[1]; human, in vivo, 800 mg, Group 1 Day 3, AL‐335 alone, median (range)
  Tmax: 2 h
[1]; human, in vivo, 800 mg, Group 2 Day 3, AL‐335 alone, median (range)
  Tmax: 2 h
[1]; human, in vivo, 800 mg, t 1/2, Group 1 Day 3, AL‐335 alone, mean (SD)
  half-life: 0.61 h
[1]; human, in vivo, 800 mg, t 1/2, Group 2 Day 3, AL‐335 alone, mean (SD)
  half-life: 0.69 h
[1]; human, in vivo, Group 1 Day 13, AL‐335 + SMV, mean (SD)
  AUC: 1000 ng·h/mL
[1]; human, in vivo, Group 1 Day 23, AL‐335 + ODV + SMV, mean (SD)
  AUC: 2080 ng·h/mL
[1]; human, in vivo, Group 2 Day 13, AL‐335 + ODV, mean (SD)
  AUC: 1330 ng·h/mL
[1]; human, in vivo, Group 2 Day 23, AL‐335 + ODV + SMV, mean (SD)
  AUC: 2920 ng·h/mL
[1]; human, in vivo, Group 1 Day 13, AL‐335 + SMV, median (range)
  Tmax: 2 h
[1]; human, in vivo, Group 1 Day 23, AL‐335 + ODV + SMV, median (range)
  Tmax: 2 h
[1]; human, in vivo, Group 2 Day 13, AL‐335 + ODV, median (range)
  Tmax: 2 h
[1]; human, in vivo, Group 2 Day 23, AL‐335 + ODV + SMV, median (range)
  Tmax: 3 h
[1]; human, in vivo, t 1/2, Group 1 Day 13, AL‐335 + SMV, mean (SD)
  half-life: 0.64 h
[1]; human, in vivo, t 1/2, Group 1 Day 23, AL‐335 + ODV + SMV, mean (SD)
  half-life: 0.69 h
[1]; human, in vivo, t 1/2, Group 2 Day 13, AL‐335 + ODV, mean (SD)
  half-life: 0.62 h
[1]; human, in vivo, t 1/2, Group 2 Day 23, AL‐335 + ODV + SMV, mean (SD)
  half-life: 0.84 h
[1]; odalasvir given alone with AL‐335 (abstract)
  AUC 0‐24 h increase: 3 fold
[1]; simeprevir given alone with AL‐335 (abstract)
  AUC 0‐24 h increase: 4 fold
[3]
  inhibition potential for CYPs: low inhibition potential
[4]
  interaction with host polymerases: do not interact
[5]
  BCRP substrate status: substrate
OATP1B1/1B3; ref data on file
  OATP1B1/1B3 substrate / inhibitor status: neither a substrate nor an inhibitor

— PMC5927802, “Pharmacokinetics, safety, and tolerability of the 2‐ and 3‐direct‐acting antiviral combination of AL‐335, odalasvir, and simeprevir in healthy subjects” (Pharmacology Research & Perspectives, 2018)
